DBAASP
Converted amounts (≈) assume the structure as drawn.

How the values were obtained:
Assay in all cases: ≥ marks a high value that may be exact or a test limit, other limits are often not marked, values filed in µg/mL are converted to µM
[1] = tested on: Bacillus subtilis ATCC 6633
[2] = tested on: Escherichia coli ATCC 8739
[3] = tested on: Staphylococcus aureus ATCC 43300
[4] = tested on: Staphylococcus aureus ATCC 6538
Bacillus subtilis 168 = tested on: Bacillus subtilis 168
[5] = tested on: Candida albicans F7-39/IDE99
Escherichia coli B = tested on: Escherichia coli B
[6] = tested on: Micrococcus luteus CCM 144
[7] = tested on: Pseudomonas aeruginosa ATCC 27853
Pseudomonas aeruginosa = tested on: Pseudomonas aeruginosa
Staphylococcus aureus = tested on: Staphylococcus aureus
[8] = tested on: Staphylococcus epidermidis
[9] = tested on: Candida albicans ATCC 90028
[10] = tested on: Enterococcus faecalis ATCC 29212
Escherichia coli UB1005 = tested on: Escherichia coli UB1005
[11] = tested on: Salmonella enterica subsp. enterica serovar Pullorum C79-13
[12] = tested on: Salmonella enterica subsp. enterica serovar Typhimurium ATCC 14028
[13] = tested on: Salmonella enterica subsp. enterica serovar Typhimurium C77-31
[14] = tested on: Staphylococcus epidermidis ATCC 12228
Escherichia coli BW25113 = tested on: Escherichia coli BW25113
Bacillus cereus AS1.126 = tested on: Bacillus cereus AS1.126
[15] = tested on: Enterococcus faecalis CGMCC 1.595
[16] = tested on: Enterococcus faecium CGMCC 1.2334
Escherichia coli AS1.349 = tested on: Escherichia coli AS1.349
[17] = tested on: Lactococcus lactis AS1.1690
[18] = tested on: Pseudomonas aeruginosa CGMCC 1.860
[19] = tested on: Staphylococcus aureus AS1.72

MIC [3] | MIC (Bacillus subtilis 168) | MIC [5] | MIC (Escherichia coli B) | MIC [6] | MIC [7] | MIC (Pseudomonas aeruginosa) | MIC (Staphylococcus aureus) | SMILES | further results
25 µM (≈ 120 µg/mL) | – | – | – | – | – | – | – | CC[C@H](C)[C@H](NC(=O)CN)C(=O)N[C@@H](Cc1ccccc1)C(=O)N[C@@H](CO)C(=O)N[C@@H](CCCCN)C(=O)N[C@@H](Cc1ccccc1)C(=O)N[C@@H](C)C(=O)NCC(=O)N[C@@H](CCCCN)C(=O)NCC(=O)N[C@H](C(=O)N[C@@H](CCCCN)C(=O)N[C@@H](CC(N)=O)C(=O)N[C@@H](CC(C)C)C(=O)N[C@@H](CC(C)C)C(=O)N[C@H](C(=O)N[C@@H](CCCCN)C(=O)NCC(=O)N[C@H](C(=O)N[C@@H](CCCCN)C(=O)N[C@@H](CC(N)=O)C(=O)N[C@H](C(=O)NCC(=O)N[C@@H](CCCCN)C(=O)N[C@@H](CCC(=O)O)C(=O)N[C@H](C(=O)NCC(=O)N[C@@H](CCSC)C(=O)N[C@@H](CC(=O)O)C(=O)N[C@H](C(=O)N[C@H](C(=O)N[C@@H](CCCN=C(N)N)C(=O)N[C@H](C(=O)NCC(=O)N[C@H](C(=O)N[C@@H](CC(=O)O)C(=O)N[C@H](C(=O)N[C@@H](C)C(=O)NCC(=O)N[C@H]1CSSC[C@@H](C(=O)O)NC(=O)[C@H](CCC(=O)O)NC(=O)CNC(=O)[C@H](CCCCN)NC(=O)[C@H]([C@@H](C)CC)NC(=O)[C@H](CCCCN)NC1=O)[C@@H](C)CC)[C@@H](C)CC)[C@@H](C)O)[C@@H](C)CC)C(C)C)C(C)C)[C@@H](C)CC)C(C)C)C(C)C)[C@@H](C)CC [GIFSKFAGKGIKNLLVKGVKNIGKEVGMDVIRTGIDIAGCKIKGEC] | MIC [1]: 25 µM (≈ 120 µg/mL); MIC [2]: 6.3 µM (≈ 30.3 µg/mL); MIC [4]: 3.1 µM (≈ 14.9 µg/mL)
> 100 µM | ≥ 49 µM | ≥ 100 µM | ≥ 100 µM | 5.8 µM (≈ 10.5 µg/mL) | 98 µM (≈ 177 µg/mL) | > 100 µM | > 100 µM | CC[C@H](C)[C@H](NC(=O)CN)C(=O)N[C@@H](CC(C)C)C(=O)N[C@@H](CO)C(=O)N[C@@H](CO)C(=O)N[C@@H](CC(C)C)C(=O)N[C@@H](Cc1c[nH]c2ccccc12)C(=O)N[C@@H](CCCCN)C(=O)N[C@@H](CCCCN)C(=O)N1CCC[C@H]1C(=O)N[C@@H](CCCCN)C(=O)N[C@@H](CCCCN)C(=O)N[C@H](C(=O)N[C@H](C(=O)N[C@@H](C)C(=O)N[C@@H](CCCCN)C(N)=O)[C@@H](C)CC)[C@@H](C)CC [GILSSLWKKPKKIIAK] | MIC [8]: ≥ 100 µM
25 µM (≈ 50.5 µg/mL) | – | – | – | – | – | – | – | CC[C@H](C)[C@H](NC(=O)CN)C(=O)N[C@@H](CC(C)C)C(=O)N[C@@H](CO)C(=O)N[C@H](C(=O)N[C@H](C(=O)N[C@@H](Cc1ccccc1)C(=O)N[C@@H](CCCCN)C(=O)N[C@@H](C)C(=O)NCC(=O)N[C@@H](CCCCN)C(=O)NCC(=O)N[C@H](C(=O)N[C@H](C(=O)N[C@H]1CSSC[C@@H](C(=O)O)NC(=O)[C@H](CC(C)C)NC(=O)CNC(=O)[C@H](CO)NC(=O)[C@H](CC(C)C)NC(=O)CNC1=O)C(C)C)[C@@H](C)CC)C(C)C)[C@@H](C)O [GILSTVFKAGKGIVCGLSGLC] | MIC [1]: 12.5 µM (≈ 25.3 µg/mL); MIC [9]: ≥ 100 µM; MIC [2]: ≥ 50 µM; MIC [4]: 3.1 µM (≈ 6.27 µg/mL)
7.2 µM (≈ 12.1 µg/mL) | 7 µM (≈ 11.7 µg/mL) | 8.4 µM (≈ 14.1 µg/mL) | 3.6 µM (≈ 6.03 µg/mL) | 3 µM (≈ 5.02 µg/mL) | 8 µM (≈ 13.4 µg/mL) | 17 µM (≈ 28.5 µg/mL) | 10 µM (≈ 16.7 µg/mL) | CC[C@H](C)[C@H](NC(=O)CN)C(=O)N[C@@H](CCSC)C(=O)N[C@@H](CO)C(=O)N[C@@H](CO)C(=O)N[C@@H](CC(C)C)C(=O)N[C@@H](CCSC)C(=O)N[C@@H](CCCCN)C(=O)N[C@@H](CCCCN)C(=O)N[C@@H](CC(C)C)C(=O)N[C@@H](C)C(=O)N[C@@H](C)C(=O)N[C@H](C(=O)N[C@H](C(=O)N[C@@H](C)C(=O)N[C@@H](CCCCN)C(N)=O)[C@@H](C)CC)[C@@H](C)CC [GIMSSLMKKLAAIIAK] | MIC [8]: 5 µM (≈ 8.37 µg/mL)
– | 3.4 µM (≈ 6.49 µg/mL) | 12.1 µM (≈ 23.1 µg/mL) | 1.8 µM (≈ 3.44 µg/mL) | 1.2 µM (≈ 2.29 µg/mL) | – | 47.5 µM (≈ 90.7 µg/mL) | 3.5 µM (≈ 6.68 µg/mL) | CC[C@H](C)[C@H](NC(=O)[C@H](CC(C)C)NC(=O)[C@H](CCCCN)NC(=O)[C@@H](NC(=O)[C@@H](NC(=O)[C@H](CCCCN)NC(=O)[C@@H]1CCCN1C(=O)[C@H](CC(C)C)NC(=O)[C@@H](NC(=O)[C@H](CCCCN)NC(=O)[C@H](C)NC(=O)[C@H](CC(C)C)NC(=O)[C@H](CC(C)C)NC(=O)[C@H](CO)NC(=O)[C@H](C)NC(=O)[C@H](CCSC)NC(=O)CN)C(C)C)C(C)C)C(C)C)C(=O)N[C@@H](CCCCN)C(=O)O [GMASLLAKVLPKVVKLIK] | –
– | – | – | – | – | 4 µM (≈ 12.4 µg/mL) | – | – | CC[C@H](C)[C@H](NC(=O)[C@H](CCCCN)NC(=O)[C@H](CCCCN)NC(=O)[C@H](Cc1ccccc1)NC(=O)[C@H](CC(C)C)NC(=O)[C@H](CCCCN)NC(=O)[C@H](Cc1c[nH]c2ccccc12)NC(=O)[C@@H](N)CCCCN)C(=O)N[C@@H](CCCN=C(N)N)C(=O)N[C@@H](Cc1ccccc1)C(=O)NCC(=O)N[C@@H](CCCN=C(N)N)C(=O)N[C@@H](Cc1ccccc1)C(=O)N[C@@H](CC(C)C)C(=O)N[C@@H](CCCN=C(N)N)C(=O)N[C@@H](CCCCN)C(=O)N[C@H](C(=O)N[C@@H](CCCN=C(N)N)C(=O)N[C@@H](CCCN=C(N)N)C(=O)N[C@@H](Cc1ccccc1)C(=O)N[C@@H](CCCN=C(N)N)C(=O)N1CCC[C@H]1C(=O)N[C@@H](CCCCN)C(N)=O)[C@@H](C)CC [KWKLFKKIRFGRFLRKIRRFRPK] | MIC [10]: 4 µM (≈ 12.4 µg/mL); MIC (Escherichia coli UB1005): 2 µM (≈ 6.21 µg/mL); MIC [11]: 8 µM (≈ 24.8 µg/mL); MIC [12]: 4 µM (≈ 12.4 µg/mL); MIC [13]: 4 µM (≈ 12.4 µg/mL); MIC [14]: 4 µM (≈ 12.4 µg/mL)
– | ≥ 65 µM | ≥ 100 µM | ≥ 100 µM | ≥ 100 µM | – | > 100 µM | > 100 µM | CC[C@H](C)[C@H](NC(=O)[C@H](C)NC(=O)CNC(=O)[C@H](CCCCN)NC(=O)[C@H](CC(N)=O)NC(=O)[C@@H](N)CC(C)C)C(=O)N[C@@H](CC(C)C)C(=O)N[C@@H](CCCCN)C(=O)N[C@@H](Cc1cnc[nH]1)C(=O)N[C@H](C(=O)N[C@H](C(=O)N[C@@H](CCCCN)C(N)=O)[C@@H](C)CC)[C@@H](C)CC [LNKGAILKHIIK] | –
– | – | – | – | – | – | – | – | CC[C@H](C)[C@H](NC(=O)[C@@H]1CCCN1C(=O)[C@@H]1CCCN1C(=O)[C@H](CCCN=C(N)N)NC(=O)[C@H](CCCN=C(N)N)NC(=O)[C@H](Cc1c[nH]c2ccccc12)NC(=O)[C@@H]1CCCN1C(=O)[C@@H]1CCCN1C(=O)[C@H](CCCN=C(N)N)NC(=O)[C@H](Cc1ccccc1)NC(=O)[C@@H](N)CCCN=C(N)N)C(=O)N[C@@H](CCCN=C(N)N)C(=O)N1CCC[C@H]1C(=O)N1CCC[C@H]1C(=O)N[C@@H](Cc1ccccc1)C(=O)N[C@@H](Cc1ccc(O)cc1)C(=O)N1CCC[C@H]1C(=O)O [RFRPPWRRPPIRPPFYP] | MIC (Escherichia coli BW25113): 8 µM (≈ 17.9 µg/mL)
– | – | – | – | – | – | – | – | CC(C)[C@H](N)C(=O)N[C@@H](Cc1c[nH]c2ccccc12)C(=O)N[C@@H](CCCN=C(N)N)C(=O)N[C@@H](Cc1cnc[nH]1)C(=O)N[C@@H](Cc1c[nH]c2ccccc12)C(=O)O [VWRHW] | MIC (Bacillus cereus AS1.126): ≥ 100 µM; MIC [15]: ≥ 100 µM; MIC [16]: ≥ 100 µM; MIC (Escherichia coli AS1.349): ≥ 100 µM; MIC [17]: ≥ 100 µM; MIC [18]: ≥ 100 µM; MIC [19]: ≥ 100 µM
